target: T1, 5-lipoxygenase (Mus musculus, UniProt P48999); experiment: 5-lipoxygenase inhibition: release of LTC4 from zymosan-stimulated mouse peritoneal macrophage cells; type: cell-based; details: 10^-5 mol/l, read-out: In vitro % inhibition effect on the release of LTC4
T1 construct: A cell suspension containing peritoneal cells of male mice 8-10 weeks old was obtained; endogenous in cells; host or cells: mouse peritoneal macrophages (male mice 8-10 weeks old), zymosan-stimulated
T1 sequence (P48999 1-674): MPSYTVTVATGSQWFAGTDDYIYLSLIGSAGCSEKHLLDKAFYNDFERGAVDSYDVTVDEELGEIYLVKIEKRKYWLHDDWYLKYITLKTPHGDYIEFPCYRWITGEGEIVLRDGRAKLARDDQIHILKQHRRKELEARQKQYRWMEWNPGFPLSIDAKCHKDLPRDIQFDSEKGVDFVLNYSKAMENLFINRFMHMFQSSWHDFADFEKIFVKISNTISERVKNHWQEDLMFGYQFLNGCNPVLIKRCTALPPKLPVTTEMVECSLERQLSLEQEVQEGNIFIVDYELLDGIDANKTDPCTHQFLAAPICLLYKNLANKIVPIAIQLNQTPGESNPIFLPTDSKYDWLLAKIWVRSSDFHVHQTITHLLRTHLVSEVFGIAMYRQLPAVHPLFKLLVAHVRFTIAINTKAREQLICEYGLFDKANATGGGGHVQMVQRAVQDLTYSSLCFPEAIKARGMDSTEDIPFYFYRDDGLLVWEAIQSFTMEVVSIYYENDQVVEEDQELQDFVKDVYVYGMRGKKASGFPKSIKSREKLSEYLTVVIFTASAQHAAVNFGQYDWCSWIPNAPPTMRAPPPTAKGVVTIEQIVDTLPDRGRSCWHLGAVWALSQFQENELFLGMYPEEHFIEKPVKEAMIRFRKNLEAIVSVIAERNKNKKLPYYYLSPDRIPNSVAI
Description: 5. In vitro determination of cyclooxygenase inhibition and 5-lipoxygenase inhibition.
After activation of the cell, arachidonic acid contained in cell membranes is metabolized in two ways. Leukotrienes, inter alia leukotriene C4, are formed under the action of the enzyme 5-lipoxygenase (5-LO), and prostanoids are formed under the action of the enzyme cyclooxygenase (CO). In in vitro systems, the metabolites are secreted from the cell.
To investigate the cyclooxygenase-inhibiting and the 5-lipoxygenase-inhibiting properties, the inhibitory effect of the test substances on the biosynthesis of the arachidonic acid derivatives leukotriene C4 (LTC4) and 6-ketoprostaglandin F1 α (6-keto-PGF1 α) is determined in vitro on mouse peritoneal macrophage cells. This was accomplished by determining the LTC4 and 6-keto-PGF1 α contents in a culture medium of mouse peritoneal macrophage cells by zymosan stimulation as described by Scott et al. (J. Exp. Med. 152 (1980), 324-335) and by Fradin et al. (Prostaglandins, 33 (1987), 579-589).
A cell suspension containing peritoneal cells of male mice 8-10 weeks old was obtained in a known manner. A commercially available cell culture solution (RPMI 1640 from Messrs. Gibco) was used to which heparin (I0 international units/ml) and antibiotics were added according to the recipe of Bonney et al. (Biochem. J. 176 (1978) 422-433). The cell suspension was adjusted to a cell concentration of 10^6 cells per ml and distributed uniformly on titer plates containing […] (wells). These were kept for two hours in a humidified incubator filled with air enriched with 7% CO2. Cells not adhering to the titer cell walls were then removed by washing. The remaining macrophage cells adhering to the walls were incubated for about 12 hours in a suspension medium to which 0.1% bovine serum albumin (BSA) were added. The suspension medium was then replaced by a Hanks balanced salt solution (HBSS) containing 10 mM Hepes (hydroxyethyl-piperazinoethanesulfonic acid), to which a 0.1% strength solution of the test substances in aqueous, 1% strength dimethylformamide or only the solvent had been added. After 15 minutes the arachidonic acid metabolism was stimulated by adding 10 particles of zymosan (=glycoproteinmixture, isolated from cell walls of beer yeast, Saccharomyces cerevisiae, manufactured by Sigma Chemical Co., Munich) per titer cell. After 2 hours, samples of each of the supernatant liquids were investigated for their 6-keto-PGF1 α and LTC4 contents by means of an enzyme immunoassay (EIA) carried out by the method of Pradelles et al. (Analytical Chem. 57 (1985), 1170-1173). The determination of LTC4 and the determination of 6-keto-PGF1 α were each carried out in comparison with a comparative scale on suitable dilutions of the samples (1:50 to 1:250 for the LTC4 determination and 1:250 to 1:1250 for the 6-keto-PGF1 α determination). To determine the inhibitory effect of a 10^-5 molar concentration of the compounds, the amount of reference eicosanoids was determined and the inhibitory effect was calculated from this in % inhibition compared to the measurements of the zymosan controls.

| inhibition at 10 µM | Compound |
| --- | --- |
| 90% | CCCCC1CCc2cccc3c(CCN4CCN(c5cc(C)ccn5)CC4)c(C)n1c23 (stereo not shown) [Example 73, 4-n-butyl-5,6-dihydro-2-methyl-1-{2-[4-(4-methylpyridin-2-yl)piperazin-1-yl]ethyl}-4H-pyrrolo[3,2,1-ij]quinoline] |
| 34% | Cc1ccnc(N2CCN(CCc3c(C)n4c5c(cc(C(=O)C6CCCCC6)cc35)CCC4)CC2)c1 [Example 83] |
| 89% | CC(C)=Cc1cc2c3c(c1)c(CCN1CCN(c4cc(C)ccn4)CC1)c(C)n3CCC2 [Example 26, 5,6-Dihydro-2-methyl-8-(2-methylprop-1-enyl)-1-{2-[4-(4-methylpyridin-2-yl)piperazin-1-yl]ethyl}-4H-pyrrolo[3,2,1-ij]quinoline] |
| 98% | CCCCC1CCc2cc(OC)cc3c(CCN4CCN(c5cc(C)ccn5)CC4)c(C)n1c23 (stereo not shown) [Example 63] |
| 75% | CCCCC1CCc2cc(O)cc3c(CCN4CCN(c5cc(C)ccn5)CC4)c(C)n1c23 (stereo not shown) [Example 76] |
| 62% | Cc1ccnc(N2CCN(CC(O)c3c(C4CCCCC4)n4c5c(cccc35)CCC4)CC2)c1 (stereo not shown) [Example 85] |
| 24% | Cc1c(CCN2CCN(c3ccc(Br)cn3)CC2)c2cccc3c2n1CCC3 [Example 43] |
| 44% | CCCCCCCC1CCc2cccc3c(CCN4CCN(c5cc(C)ccn5)CC4)c(C)n1c23 (stereo not shown) [Example 4, 4-n-heptyl-5,6-dihydro-2-methyl-1-{2-[4-(4-methylpyridin-2-yl)piperazin-1-yl]ethyl}-4H-pyrrolo[3,2,1-ij]-quinoline] |
| 61% | Cc1ccnc(N2CCN(CCc3c(C)n4c5c(cc(C(=O)C(C)C)cc35)CCC4)CC2)c1 [Example 27, 5,6-dihydro-2-methyl-8-(2-methyl-1-oxopropyl)-1-{2-[4-(4-methylpyridin-2-yl)piperazin-1-yl]ethyl}-4H-pyrrolo-[3,2,1-ij]quinoline] |
| 69% | Cc1ccnc(N2CCN(CCc3c(C)n4c5c(cc(NC(=O)c6ccccc6)cc35)CCC4)CC2)c1 [Example 25, 8-Benzoylamino-5,6-dihydro-2-methyl-1-{2-[4-(4-methylpyridin-2-yl)piperazin-1-yl]-ethyl}-4H-pyrrolo[3,2,1-ij]quinoline] |
| 39% | CNc1cc2c3c(c1)c(CCN1CCN(c4cc(C)ccn4)CC1)c(C)n3CCC2 [Example 80] |
| 97% | Cc1ccnc(N2CCN(CCc3c(-c4ccc(OCCCCO)cc4)n4c5c(cccc35)CCC4)CC2)c1 [Example 12, 2-[4-(4-Hydroxybutyloxy)-phenyl]-1-{2-[4-(4-methylpyridin-2-yl)piperazin-1-yl]ethyl}-5,6-dihydro-4H-pyrrolo[3,2,1-ij]quinoline] |
| 89% | COc1ccc(C2CCc3cc(OC)cc4c(CCN5CCN(c6cc(C)ccn6)CC5)c(C)n2c34)cc1 (stereo not shown) [Example 65] |
| 94% | CCCCC1CCc2cc(C(=O)C(C)C)cc3c(CCN4CCN(c5cc(C)ccn5)CC4)c(C)n1c23 (stereo not shown) [Example 23, 4-n-Butyl-5,6-dihydro-8-(2-methyl-1-oxopropyl)-2-methyl-1-{2-[4-(4-methylpyridin-2-yl)piperazin-1-yl]ethyl}-4H-pyrrolo[3,2,1-ij]quinoline] |
| 74% | Cc1ccnc(N2CCN(CCc3c(C)n4c5c(cc(Cc6ccccc6)cc35)CCC4)CC2)c1 [Example 77] |
| 80% | COc1ccc(C2CCc3cccc4c(CCN5CCN(c6cc(C)ccn6)CC5)c(C)n2c34)cc1 (stereo not shown) [Example 59] |
| 4% | Cc1ccnc(N2CCN(CCc3c(C)n4c5c(cccc35)CC4C)CC2)c1 (stereo not shown) [Example 33] |
| 66% | Cc1ccnc(N2CCN(CCc3c(C)n4c5c(ccc(C(O)C(C)C)c35)SCC4)CC2)c1 (stereo not shown) [Example 90] |
| 81% | Cc1ccnc(N2CCN(CCc3c(C)n4c5c(ccc(C(=O)C(C)C)c35)SCC4)CC2)c1 [Example 91] |
| 23% | Cc1ccnc(N2CCN(CCc3c(C)n4c5c(cccc35)CCC4C3CCCCC3)CC2)c1 (stereo not shown) [Example 87] |
| 62% | Cc1ccnc(N2CCN(CCc3c(C)n4c5c(cc(Br)cc35)CCC4)CC2)c1 [Example 9, 8-Bromo-2-methyl-1-{2-[4-(4-methylpyridin-2-yl)piperazin-1-yl]ethyl}-5,6-dihydro-4H-pyrrolo[3,2,1-ij]quinoline] |
| 71% | Cc1ccnc(N2CCN(CCc3c(C)n4c5c(c(Cl)cc(Cl)c35)OCC4)CC2)c1 [Example 79] |
| 55% | Cc1ccnc(N2CCN(CCc3c(C)n4c5c(cc(C(O)C(C)C)cc35)CCC4)CC2)c1 (stereo not shown) [Example 19, 5,6-Dihydro-8-(1-hydroxy-2-methylpropyl)-2-methyl-1-{2-[4-(4-methylpyridin-2-yl)piperazin-1-yl]ethyl}-4H-pyrrolo-[3,2,1-ij]quinoline] |
| 98% | Cc1ccnc(N2CCN(CCc3c(C)n4c5c(cccc35)CCC4c3ccc(O)cc3)CC2)c1 (stereo not shown) [Example 61] |
| 95% | Cc1ccnc(N2CCN(CCc3c(C)n4c5c(cc(CC(C)C)cc35)CCC4)CC2)c1 [Example 21, 5,6-Dihydro-2-methyl-8-(2-methylpropyl)-1-{2-[4-(4-methylpyridin-2-yl)piperazin-1-yl]ethyl}-4H-pyrrolo[3,2,1-ij]quinoline] |
| 0% | Cc1ccnc(N2CCN(CCc3c(C)n4c5c(cc(N)cc35)CCC4)CC2)c1 [Example 20, 8-Amino-5,6-dihydro-2-methyl-1-{2-[4-(4-methylpyridin-2-yl)piperazin-1-yl]ethyl}-4H-pyrrolo[3,2,1-ij]quinoline] |
| 56% | COc1ccc(-c2c(CCN3CCN(c4cc(C)ccn4)CC3)c3cccc4c3n2CCC4)cc1 [Example 7, 2-(4-methoxy-phenyl)-1-{2-[4-(4-methylpyridin-2-yl)piperazin-1-yl]ethyl}-5,6-dihydro-4H-pyrrolo[3,2,1-ij]quinoline] |
| 29% | Cc1ccnc(N2CCN(CCc3c(C)n4c5c(cc(N(C)C)cc35)CCC4)CC2)c1 [Example 81] |

| Compound | inhibition at 10 µM |
| --- | --- |
| Cc1ccnc(N2CCN(CCc3c(C)n4c5c(cccc35)CCC4)CC2)c1 [Example 1, 5,6-Dihydro-2-methyl-1-{2-[4-(4-methylpyridin-2-yl)piperazin-1-yl]ethyl}-4H-pyrrolo[3,2,1-ij]quinoline] | 24% |
| CCc1c(C(O)CN2CCN(c3cc(C)ccn3)CC2)c2cccc3c2n1CCC3 (stereo not shown) [Example 14, 2-Ethyl-5,6-dihydro-1-{2-[4-(4-methylpyridin-2-yl)piperazin-1-yl]-1-hydroxyethyl}-4H-pyrrolo[3,2,1-ij]quinoline] | 55% |
| Cc1ccnc(N2CCN(CCc3c(C)n4c5c(cccc35)CCC4c3ccccc3)CC2)c1 (stereo not shown) [Example 3, 5,6-dihydro-2-methyl-4-phenyl-1-{2-[4-(4-methylpyridine-2-yl)piperazin-1-yl]-ethyl}-4H-pyrrolo[3,2,1-ij]quinoline] | 37% |
| Cc1ccc(N2CCN(CCc3c(C)n4c5c(cccc35)CCC4)CC2)nc1 [Example 42] | 15% |
| Cc1ccnc(N2CCN(CCc3c(C)n4c5c(ccc(Cl)c35)OCC4)CC2)c1 [Example 35] | 75% |
| Cc1cc2c3c(c1)c(CCN1CCC(C(=O)c4ccc(F)cc4)CC1)c(C)n3CCC2 [Example 55] | 45% |
